Measured values: patent US4886915A, “Water soluble organic ammonium per halides” (priority 1988, dated 1989)
Values belong to the compound of their own block, whether it stands above or below them.

Tests used:
[1] = Titration for oxidizable bromine (Standard Methods for the Examination of Water and Waste Water, Method 408A); details: for Tit. Ox. Br2: Table 1, aqueous solution prepared from 48% HBr; for Ox. Br2 of the sample used for vapor pressure: Table 9
[2] = Vapor pressure of aqueous organic ammonium perbromides (isoteniscope); details: for Vp: @ 26° C., Table 9; for vapor pressure of bromine: 26° C., bromine water approx. 3.5% by weight, NaBr3 and perbromides roughly 40% Br2
[3] = Perbromide closed-bottle shelf life stability at ambient temperature; details: for Initial Ox. Br2: time zero
Protocol: (§1) In order to determine the shelf life stability of the perbromide solutions, a series of studies were conducted to determine the percent bromine lost over time. The following tables shown below list the perbromides studied and the percent oxidizable bromine lost over time. The perbromides studied were kept in closed bottles in ambient conditions (Table 7) and at 50° C.

[4] = Perbromide closed-bottle shelf life stability at 50° C.; details: for Initial Ox. Br2: time zero
Protocol: as §1

[5] = Water solubility of perbromides; details: for Solubility: in water, Tables 2 and 3
[6] = Table 2, perbromide separated as bottom viscous liquid phase
[7] = ambient, time elapsed 24 months (#3 17, #11 16, #23 22 months)
[8] = 50° C., time elapsed 40 (months)
[9] = Table 4, concentrated (74.1% hydrobromide, #17) and anhydrous (100%, #18-20)
[10] = ambient, time elapsed 24 months (#3 17, #11 16, #23 22 months), 1.0512e+06 min

Tit. Ox. Br [1, 9]: 47.3 % by Weight
Compound: Ethanolammonium Perbromide [Compound #17]

Tit. Ox. Br2 [1]: 37.7 % by Weight
Compound: Ethylethanolammonium Perbromide [compound 6]

Relative Change in % Br2 ([3]; 17520 h): 2.0%
Relative Change in % Br2 ([4]; 29200 h): 3.1%
Compound: Ethanolammonium Perbromide [Compound #21]

vapor pressure of bromine [2]: 140 mm Hg
Vp [2]: 145 mmHg
Compound: Sodium (NaBr3) [compound 33]

Relative Change in % Br2 ([3]; 17520 h): 2.3%
Relative Change in % Br2 ([4]; 29200 h): 2.7%
Compound: Propylammonium Perbromide [compound 22]

Solubility [5]: 1.0 g./100 g H2O
Change in % Br2 [3, 7]: 2.1%
Final Ox. Br2 [3, 7]: 41.1 % by Weight
Relative Change in % Br2 [3, 10]: 4.9%
Initial Ox. Br2 ([3]; ambient): 43.2 % by Weight
Tit. Ox. Br [1, 6]: 40.9 % by Weight
Vp [2]: 38 mmHg
Compound: Dibutylammonium Perbromide [compound 11]

Tit. Ox. Br2 [1]: 39.3 % by Weight
Ox. Br2 of the sample used for vapor pressure [1]: 39.3 % by Weight
Vp [2]: 28 mmHg
Compound: Methylethanolammonium Perbromide [compound 5]

Tit. Ox. Br2 [1]: 34.7 % by Weight
Compound: Octylammonium Perbromide [compound 9]

Tit. Ox. Br [1, 9]: 51.8 % by Weight
Compound: Ethanolammonium Perbromide [Compound #18]

Relative Change in % Br2 ([3]; 17520 h): 4.0%
Change in % Br2 [3, 7]: 1.6%
Final Ox. Br2 [3, 7]: 38.5 % by Weight
Initial Ox. Br2 ([3]; ambient): 40.1 % by Weight
Change in % Br2 [4, 8]: 1.8%
Final Ox. Br2 [4, 8]: 39.0 % by Weight
Initial Ox. Br2 ([4]; 50° C.): 40.8 % by Weight
Relative Change in % Br2 ([4]; 29200 h): 4.4%
Compound: Ethanolammonium Perbromide [Compound #1]

Tit. Ox. Br [1, 6]: 45.1 % by Weight
Compound: Dipropylammonium Perbromide [compound 10]

More lines, now with the values behind:

Compound: Hexylammonium Perbromide [compound 8]
Tit. Ox. Br2 [1]: 36.1 % by Weight

Compound: Tributylammonium Perbromide [compound 12, reference compound]
Tit. Ox. Br [1, 6]: 36.0 % by Weight
Ox. Br2 of the sample used for vapor pressure [1]: 37.5 % by Weight
Vp [2]: 28 mmHg

Compound: Diethanolammonium Perbromide [Compound #4]
Change in % Br2 [3, 7]: 2.0%
Final Ox. Br2 [3, 7]: 35.0 % by Weight
Initial Ox. Br2 ([3]; ambient): 37.0 % by Weight
Vp [2]: 49 mmHg
Change in % Br2 [4, 8]: 7.0%
Final Ox. Br2 [4, 8]: 30.0 % by Weight
Initial Ox. Br2 ([4]; 50° C.): 37.0 % by Weight

Compound: Bromine in H2 O [compound 34]
Ox. Br2 of the sample used for vapor pressure [1]: 3.5 % by Weight
vapor pressure of bromine [2]: 210 mm Hg
Vp [2]: 210 mmHg

Compound: Diethanolammonium Perbromide [Compound #20]
water solubility (in words) [5]: very soluble in water
Tit. Ox. Br [1, 9]: 45.3 % by Weight

Compound: Dimethylethanolammonium Perbromide [Compound #7, reference compound]
Vp [2]: 30 mmHg

Compound: Propylammonium Perbromide [Compound #19]
Tit. Ox. Br [1, 9]: 53.2 % by Weight

Compound: Propylammonium Perbromide [Compound #3]
Change in % Br2 [3, 7]: 0.3%
Final Ox. Br2 [3, 7]: 41.0 % by Weight
Relative Change in % Br2 [3, 10]: 0.7%
Initial Ox. Br2 ([3]; ambient): 41.3 % by Weight
Tit. Ox. Br2 [1]: 39.3 % by Weight
Ox. Br2 of the sample used for vapor pressure [1]: 39.3 % by Weight
Vp [2]: 36 mmHg
Change in % Br2 [4, 8]: 2.0%
Final Ox. Br2 [4, 8]: 39.0 % by Weight
Relative Change in % Br2 ([4]; 50° C., time elapsed 40 (months), 1.752e+06 min): 4.9%
Initial Ox. Br2 ([4]; 50° C.): 41.0 % by Weight

Compound: BrBr [compound 35, Pure Bromine]
Ox. Br2 of the sample used for vapor pressure [1]: 100 % by Weight
vapor pressure of bromine [2]: approximately 220 mm Hg
Vp [2]: 223 mmHg

Compound: Diethylethanolammonium [compound 14, reference compound]
water solubility (in words) [5]: only sparingly soluble in water
Solubility [5]: 0.1 g./100 g H2O
Tit. Ox. Br [1, 6]: 42.3 % by Weight

Compound: 1,6-Hexanediammonium [compound 16]
Tit. Ox. Br ([1]; Table 3, crystalline perbromide precipitated out of aqueous solution): 51.8 % by Weight
